Measured values: patent US8987272B2, “Compounds and method for treatment of HIV” (priority 2010, dated 2015)
Values joined by “and” are separate entries in the source; they are usually repeats but may differ in a detail not shown here. Equal entries are not always repeated. “Also recorded” adds a separate entry of the source. Where two headings read alike, the source gives them in different places.

Columns and labels:
HIV-1 integrase [1] = target: T1, HIV-1 integrase (Human immunodeficiency virus type 1 group M subtype B (isolate HXB2) (HIV-1), UniProt P04585); assay: biochemical; type: biochemical
Method: The capacity of the compound to inhibit HIV integrase in a cell-free system was assessed. An HIV Integrase Assay System (XpressBio Life Science Products; Thurmont, Md., www.expressbio.com) was used. In brief, double-stranded HIV-1 donor substrate (the U5 long terminal repeat) was immobilized in 96-well plates. Recombinant HIV-1 integrase protein was added, along with an oligonucleotide target substrate. The integrase cleaves the donor substrate and integrates it into the target substrate, which is now in solution phase—the integrated product (the amount is indicative of integrase activity) was detected using an antibody specific for the recombinant target/donor sequence. Inhibitors added along with the donor substrate reduced the amount of product. […] The capacity of a compound known to inhibit HIV integrase activity (NaN3) was assessed as a positive control. All assessed inhibitions were compared to controls treated with vehicle only (compounds dissolved in 100% DMSO, then diluted in buffer to a maximum DMSO concentration of 0.1% DMSO).
However, it should be kept in mind that indirect HIV integrase inhibition (which might possibly occur in living cells) will not be detected.
COTI-HIV1Doxo was assayed for HIV-1 integrase activity, as described above. All measurements were made in quadruplicate (n=4) to allow statistical analysis of significance.

HIV-1 integrase [2] = target: T1, HIV-1 integrase; assay: biochemical; type: biochemical; remark: listed apart in the source
Method: The effect of each compound on HIV integrase activity was assayed using the “HIV-1 Integrase Assay Kit” version 2.0, catalogue number EZ-1700 obtained from XpressBio Life Science Products. Immediately prior to the start of the assay, both compounds were dissolved in dimethyl sulfoxide (DMSO) and used immediately in the HIV integration assay. The assay was performed according to the instructions listed by the manufacturer (XpressBio Life Science Products, Maryland, USA). In brief, the required streptavidin-coated strip wells were coated with DS oligo and placed overnight at 4° C. The plates were then incubated with integrase and followed by the addition of test articles at the desired concentration. The plates were developed using the supplied HRP antibody and TMB peroxidase substrate as per the manufacturer's instructions. The reactions were stopped with TMB stop solution and immediately read (<10 min) using a VICTOR XXX. The absorbance of each well was read at 450 nm for 0.5 sec. All measurements were performed in triplicate.
The background absorbance was subtracted from the raw data of each sample to yield “background corrected” absorbance values. […] The CV=% SD for the 100% integrase alone control.
To determine the IC50 of each test compound, non-linear regression analysis was used.
Because the top and the bottom plateaus can be defined by solid control data (eg. sodium azide), the data was fitted to a normalized model in order to calculate the IC50. […] Since 6 compound concentrations were tested in triplicate, the data was analyzed using the standard slope model, in contrast with the variable slope model.

[3] = all concentrations tested (lowest 1 nM)

SMILES: Cn1cnc(-c2nnc(Cc3ccc(F)cc3)o2)c(O)c1=O [COTI-HIV1Doxo, 6-[5-(4-Fluoro-benzyl)-[1,3,4]oxadiazol-2-yl]-5-hydroxy-3-methyl-3H pyrimidin-4-one]
- IC50 (HIV-1 integrase [1]): ~10 µM
- effect on HIV-1 integrase activity (HIV-1 integrase [1]; 1 nM, listed as COTI-HIV-1 ketone derivative): enhanced HIV-1 integrase activity; also recorded: slightly but significantly enhanced HIV-1 integrase activity
- effect on HIV-1 integrase activity (HIV-1 integrase [1]; 100 nM): inhibited HIV-1 integrase; also recorded: significantly reduce HIV-1 integrase activity
- effect on HIV-1 integrase activity (HIV-1 integrase [1]; all higher tested concentrations (up to 100 μM)): significantly decreased HIV-1 integrase activity
- complete inhibition of integrase activity (HIV-1 integrase [1]; up to 100 μM): not observed

SMILES: Cn1cnc(-c2nnc(Cc3ccc(F)cc3)o2)c(O)/c1=N\O [COTI-HIV1DOxime, 6-[5-(4-fluoro-benzyl)-[1,3,4]oxadiazol-2-yl]-5-hydroxy-3-methyl-3H-pyrimidin-4-one oxime]
- IC50 (HIV-1 integrase [2]): 58.7 µM
- inhibition of HIV-1 integrase (HIV-1 integrase [2]; [3]): significantly inhibited HIV-1 integrase; also recorded: significantly inhibit HIV-1 integrase activity

SMILES: Cn1nc(C(=O)NCc2ccc(F)cc2)/c(=N\O)c2ncccc21 [COTI-HIV28236]
- IC50 (HIV-1 integrase [2]): 14 µM
- inhibition of HIV-1 integrase (HIV-1 integrase [2]; [3]): significantly inhibited HIV-1 integrase; also recorded: significantly inhibit HIV-1 integrase activity
- reduction in HIV-1 integrase activity (HIV-1 integrase [2]; at 100 μM): At least 50%

SMILES: [N-]=[N+]=[N-].[Na+] [sodium azide, reference compound]
- effect of positive control on HIV-1 integrase activity (HIV-1 integrase [1]; 1.0% or 3.3%): effectively decreased HIV-1 integrase activity
- effect of positive control on HIV-1 integrase activity (HIV-1 integrase [2]; positive control): effectively decrease HIV-1 integrase activity
- calculated IC50 of sodium azide controls (HIV-1 integrase [2]; two controls run in parallel): 0.12% and 0.14%
- percent control activity (HIV-1 integrase [2]; with 10% sodium azide): 0%

SMILES: Cn1nc(-c2nnc(Cc3ccc(F)cc3)o2)/c(=N\O)c2ncccc21 [COTI-HIV1Oxime]
- IC50 (HIV-1 integrase [2]): 23.9 µM
- percent of the total control activity (HIV-1 integrase [2]; at 100 μM): 34.82%
- reduction in HIV-1 integrase activity (HIV-1 integrase [2]; at 100 μM): At least 50%
- inhibition of HIV-1 integrase (HIV-1 integrase [2]; at 100 μM, listed as COTI-HIV28233): significantly inhibited HIV-1 integrase; also recorded: significantly reduce activity
- inhibition of HIV-1 integrase activity (HIV-1 integrase [2]; at low concentrations): modestly inhibit HIV-1 integrase activity
